Experimental data from patent US20250340570A1, “COMPOSITIONS USEFUL FOR MODULATING SPLICING” (Skyhawk Therapeutics, Inc., priority 2022, published 2025).

How the values were obtained:
[1] = tested on: ATXN3 transcripts containing exon 4; assay: ATXN3 quantitative splicing assay (qPCR, E4E5 transcripts containing exon 4); assay type: cell-based; conditions: Human neuroblastoma SK-N-MC cells, 24 h treatment, qPCR primers/probe E4E5
Experimental: Human neuroblastoma SK-N-MC cells were plated in 384-well plates at 20,000 cells/well. Twenty-four hours after plating, cells were treated with compounds for 24 h at appropriate concentrations ranging from 30 μM to 0.6 nM (0.3% DMSO). Treated cells were lysed in 15 μL of lysis buffer, and cDNA was synthesized using the Fast Advanced Cells-to-Ct kit. Two μL of each cDNA was used in qPCR reactions to confirm the exon 4 skipped transcripts of ATXN3. A second set of primers/probe E4E5 was used to detect the transcripts containing exon 4. The third set of primers/probe E8E9 was used to detect total gene level of ATXN3. The qPCR reactions were prepared in 384-well plates in 10.L volume, using TaqMan™ Fast Advanced Master Mix with primers and probes shown in the table below. Reactions were run in a Quant Studio 6 qPCR instrument with default settings.
The primers and probes are listed below in Table 5.

total ATXN3 protein = assay: ATXN3 total protein assay (Mesoscale Discovery); assay type: cell-based; conditions: Human neuroblastoma SK-N-MC cells, 48 hours incubation, MSD assay
Experimental: Human neuroblastoma SK-N-MC cells were seeded at 10,000 cells/well in 384 well plates one day prior to compound treatment. The concentrations of compounds were tested at appropriate doses ranging from 30 µM to 0.6 nM. After incubation for 48 hours, the cells were lysed with 25.L of lysis buffer containing protease inhibitors, and total ATXN3 protein levels were assessed by Mesoscale Discovery (MSD) assay developed with one pair of and-ATXN3 antibodies. The capture and detect antibodies were raised in mouse and rabbit respectively. Anti-rabbit MSD-ST antibody was used for secondary antibody.
ATXN3 recombinant protein was used for standards. The readouts were captured with 35.L of MSD read buffer and multi-array 384-well high binding plates.

Structure (SMILES) | IC50 [1] [nM] | IC50 (total ATXN3 protein) [nM]
N[C@@H](CO)Cc1sc2c(NCc3ccco3)snc2c1Cl [Compound 46, (R)-2-amino-3-{8-chloro-4-(furfurylamino)-3,6-dithia-2-azabicyclo[3.3.0]octa-1,4,7-trien-7-yl}-1-propanol] | 101 to 500 | 101 to 500
N[C@@H](CF)Cc1sc2c(NCc3cccs3)snc2c1Cl [Compound 47, 7-[(R)-2-amino-3-fluoropropyl]-8-chloro-4-thenylamino-3,6-dithia-2-azabicyclo[3.3.0]octa-1,4,7-triene] | 101 to 500 | 101 to 500
N[C@@H](CF)Cc1sc2c(NCc3ccco3)snc2c1Cl [Compound 48, 7-[(R)-2-amino-3-fluoropropyl]-8-chloro-4-(furfurylamino)-3,6-dithia-2-azabicyclo[3.3.0]octa-1,4,7-triene] | 101 to 500 | 101 to 500
N[C@H](Cc1sc2c(NCc3cccs3)snc2c1Br)CC1CC1 [Compound 49, 7-[(S)-2-amino-3-cyclopropylpropyl]-8-bromo-4-thenylamino-3,6-dithia-2-azabicyclo[3.3.0]octa-1,4,7-triene] | 501 to 5000 | 501 to 5000
N[C@H](Cc1sc2c(NCc3cccs3)snc2c1Cl)C1CC(F)(F)C1 [Compound 53, 7-[(R)-2-amino-2-(3,3-difluorocyclobutyl)eth-yl]-8-chloro-4-thenylamino-3,6-dithia-2-azabicyclo[3.3.0]octa-1,4,7-triene] | 501 to 5000 | 501 to 5000
C#C[C@H](N)Cc1sc2c(NCc3cccs3)snc2c1C [Compound 54, 7-[(R)-2-amino-3-butynyl]-8-methyl-4-thenylamino-3,6-dithia-2-azabicyclo[3.3.0]octa-1,4,7-triene] | 501 to 5000 | 501 to 5000
CC#C[C@H](N)Cc1sc2c(NCc3cccs3)snc2c1C [Compound 55, 7-[(R)-2-amino-3-pentynyl]-8-methyl-4-thenylamino-3,6-dithia-2-azabicyclo[3.3.0]octa-1,4,7-triene] | 10000 to 40000 | 10000 to 40000
N[C@H](Cc1sc2c(NCc3ccco3)snc2c1Cl)CC1CC1 [Compound 57, 7-[(S)-2-amino-3-cyclopropylpropyl]-8-chloro-4-(furfurylamino)-3,6-dithia-2-azabicyclo[3.3.0]octa-1,4,7-triene] | 101 to 500 | 501 to 5000
N[C@H](Cc1sc2c(NCc3cccs3)snc2c1Cl)CC1CC1 [Compound 58, 7-[(S)-2-amino-3-cyclopropylpropyl]-8-chloro-4-thenylamino-3,6-dithia-2-azabicyclo[3.3.0]octa-1,4,7-triene] | 501 to 5000 | 501 to 5000
N[C@@H](CO)Cc1sc2c(NCc3cccs3)snc2c1Br [Compound 59, (R)-2-amino-3-(8-bromo-4-thenylamino-3,6-dithia-2-azabicyclo[3.3.0]octa-1,4,7-trien-7-yl)-1-propanol] | 101 to 500 | 101 to 500
N[C@@H](CO)Cc1sc2c(NCc3ccco3)snc2c1Br [Compound 60, (R)-2-amino-3-{8-bromo-4-(furfurylamino)-3,6-dithia-2-azabicyclo[3.3.0]octa-1,4,7-trien-7-yl}-1-propanol] | 0.01 to 100 | 0.01 to 100
N[C@H](Cc1sc2c(NCc3ccco3)snc2c1Br)CC1CC1 [Compound 61, 7-[(S)-2-amino-3-cyclopropylpropyl]-8-bromo-4-(furfurylamino)-3,6-dithia-2-azabicyclo[3.3.0]octa-1,4,7-triene] | 101 to 500 | 101 to 500
COC[C@H](N)Cc1sc2c(NCc3cccs3)snc2c1Br [Compound 62, 7-[(R)-2-amino-3-methoxypropyl]-8-bromo-4-thenylamino-3,6-dithia-2-azabicyclo[3.3.0]octa-1,4,7-triene] | 101 to 500 | 501 to 5000
COC[C@H](N)Cc1sc2c(NCc3ccco3)snc2c1Br [Compound 63, 7-[(R)-2-amino-3-methoxypropyl]-8-bromo-4-(furfurylamino)-3,6-dithia-2-azabicyclo[3.3.0]octa-1,4,7-triene] | 101 to 500 | 101 to 500
COC[C@H](N)Cc1sc2c(NCc3cccs3)snc2c1C [Compound 64, 7-[(R)-2-amino-3-methoxypropyl]-8-methyl-4-thenylamino-3,6-dithia-2-azabicyclo[3.3.0]octa-1,4,7-triene] | 501 to 5000 | 501 to 5000
COC[C@H](N)Cc1sc2c(NCc3ccco3)snc2c1Cl [Compound 65, 7-[(R)-2-amino-3-methoxypropyl]-8-chloro-4-(furfurylamino)-3,6-dithia-2-azabicyclo[3.3.0]octa-1,4,7-triene] | 501 to 5000 | 101 to 500

Structure (SMILES) | IC50 [1] [nM] | IC50 (total ATXN3 protein) [nM]
C[C@H](N)Cc1cc2nsc(NCc3cccs3)c2s1 [Compound 66, 5-[(2S)-2-aminopropyl]-N-(thiophen-2-ylmethyl)thieno[3,2-c][1,2]thiazol-3-amine] | 10000 to 40000 | 10000 to 40000
FC(F)(F)c1csc2c(NCc3cccs3)snc12 [Compound 67, (thenyl){8-(trifluoromethyl)-3,6-dithia-2-azabicyclo[3.3.0]octa-1,4,7-trien-4-yl}amine] | 10000 to 40000 | 10000 to 40000
Cc1c(C[C@@H](N)CC(F)F)sc2c(NCc3cccs3)snc12 [Compound 68, 7-[(S)-2-amino-4,4-difluorobutyl]-8-methyl-4-thenylamino-3,6-dithia-2-azabicyclo[3.3.0]octa-1,4,7-triene] | 10000 to 40000 | 10000 to 40000
N[C@H](Cc1sc2c(NCc3cccs3)snc2c1Cl)CC(F)F [Compound 69, 7-[(S)-2-amino-4,4-difluorobutyl]-8-chloro-4-thenylamino-3,6-dithia-2-azabicyclo[3.3.0]octa-1,4,7-triene] | 10000 to 40000 | 10000 to 40000
N[C@H](Cc1sc2c(NCc3cccs3)snc2c1Br)CC(F)F [Compound 70, 7-[(S)-2-amino-4,4-difluorobutyl]-8-bromo-4-thenylamino-3,6-dithia-2-azabicyclo[3.3.0]octa-1,4,7-triene] | 10000 to 40000 | 10000 to 40000
Cc1c(C[C@@H](N)c2ccccc2)sc2c(NCc3cccs3)snc12 [Compound 71, 7-[(R)-2-amino-2-phenylethyl]-8-methyl-4-thenylamino-3,6-dithia-2-azabicyclo[3.3.0]octa-1,4,7-triene] | 10000 to 40000 | 5000 to 10000
Cc1c(C[C@@H](N)[C@H](C)F)sc2c(NCc3cccs3)snc12 [Compound 72, 7-[(2R,3S)-2-amino-3-fluorobutyl]-8-methyl-4-thenylamino-3,6-dithia-2-azabicyclo[3.3.0]octa-1,4,7-triene] | 501 to 5000 | 101 to 500
Cc1c(C[C@@H](N)[C@@H](C)F)sc2c(NCc3cccs3)snc12 [Compound 73, 7-[(2R,3R)-2-amino-3-fluorobutyl]-8-methyl-4-thenylamino-3,6-dithia-2-azabicyclo[3.3.0]octa-1,4,7-triene] | 10000 to 40000 | 5000 to 10000
C[C@H](F)[C@H](N)Cc1sc2c(NCc3cccs3)snc2c1Cl [Compound 74, 7-[(2R,3S)-2-amino-3-fluorobutyl]-8-chloro-4-thenylamino-3,6-dithia-2-azabicyclo[3.3.0]octa-1,4,7-triene] | 101 to 500 | 101 to 500
C[C@@H](F)[C@H](N)Cc1sc2c(NCc3cccs3)snc2c1Cl [Compound 75, 7-[(2R,3R)-2-amino-3-fluorobutyl]-8-chloro-4-thenylamino-3,6-dithia-2-azabicyclo[3.3.0]octa-1,4,7-triene] | 101 to 500 | 501 to 5000
C[C@H](N)Cc1sc2c(NCc3nccs3)snc2c1Cl [Compound 76, 7-[(S)-2-aminopropyl]-8-chloro-4-{[(1,3-thiazol-2-yl)methyl]amino}-3,6-dithia-2-azabicyclo[3.3.0]octa-1,4,7-triene] | 101 to 500 | 101 to 500
CC(=O)N[C@@H](C)Cc1sc2c(NCc3cccs3)snc2c1C [Compound 79, N-[(2S)-1-{6-methyl-3-[(thiophen-2-ylmethyl)amino]thieno[3,2-c][1,2]thiazol-5-yl}propan-2-yl]acetamide] | 10000 to 40000 | 10000 to 40000
N[C@H](Cc1sc2c(NCc3cccs3)snc2c1Br)C1CC(F)(F)C1 [Compound 80, 7-[(R)-2-amino-2-(3,3-difluorocyclobutyl)eth-yl]-8-bromo-4-thenylamino-3,6-dithia-2-azabicyclo[3.3.0]octa-1,4,7-triene] | 501 to 5000 | 5000 to 10000
C[C@H](N)Cc1sc2c(NCc3ccco3)snc2c1C(F)(F)F [Compound 81, 7-[(S)-2-aminopropyl]-4-(furfurylamino)-8-(trifluoromethyl)-3,6-dithia-2-azabicyclo[3.3.0]octa-1,4,7-triene] | 501 to 5000 | 501 to 5000
FC(F)(F)c1csc2c(NCc3ccco3)snc12 [Compound 82, (furfuryl){8-(trifluoromethyl)-3,6-dithia-2-azabicyclo[3.3.0]octa-1,4,7-trien-4-yl}amine] | 10000 to 40000 | 10000 to 40000
